Results as given in ChEMBL document CHEMBL5042488, “Synthesis, biological, and structural explorations of a series of μ-opioid receptor (MOR) agonists with high G protein signaling bias” (Eur J Med Chem, 2022).
Active and inactive are the calls of the source.

Key:
[1] = Apparent permeability across apical to basal membrane in human Caco-2 cells; assay type: ADME, cell-based
[2] = Ratio of drug concentration in brain to plasma of Sprague-Dawley rat at 2 mg/kg, iv measured at […] by LC-MS/MS analysis; assay type: ADME, organism-based; conditions: time 0.25 hrs
Mu-type opioid receptor [3] = molecular target: T1, Mu-type opioid receptor (Homo sapiens, UniProt P35372); assay: Displacement of [3H]-Diprenorphine from human mu opiod receptor expressed in CHO cells incubated for 1 hr by competition binding assay; assay type: cell-based
Mu-type opioid receptor [4] = molecular target: T1, Mu-type opioid receptor; assay: Agonist activity at mu opioid receptor (unknown origin) assessed as maximal cAMP level incubated for 40 mins by spectrophotometry relative to DAMGO; assay type: functional; conditions: filed as agonist
Rattus norvegicus [5] = assay: Antinociceptive activity in Sprague-Dawley rat incision pain model assessed as increase in paw withdrawal latency at 0.125 to 0.5 mg/kg, sc measured after 30 mins by Von Frey filament assay; assay type: functional; conditions: dose 0.125-0.5 mg/kg
[6] = Half life in Sprague-Dawley rat at 2 mg/kg, iv by LC-MS/MS analysis; assay type: ADME, organism-based; conditions: in vivo
[7] = Metabolic stability in rat liver microsomes assessed as intrinsic clearance preincubated for 10 mins followed by NADPH addition and measured after 60 mins by LC-MS/MS analysis; assay type: ADME, Microsome; conditions: time 70 min, read-out: CLH
[8] = Apparent volume of distribution in Sprague-Dawley rat at 2 mg/kg, iv by LC-MS/MS analysis; assay type: ADME, organism-based; conditions: in vivo, read-out: Vz
Mu-type opioid receptor [9] = molecular target: T1, Mu-type opioid receptor; assay: Agonist activity at mu opioid receptor (unknown origin) assessed as maximal beta arrestin-2 recruitment incubated for 3 days by PathHunter assay relative to DAMGO; assay type: functional; conditions: time 3.0 day
[10] = Plasma protein binding in human plasma assessed as unbound fraction; assay type: ADME, cell-free
Mu-type opioid receptor [11] = molecular target: T1, Mu-type opioid receptor; assay: Agonist activity at mu opioid receptor (unknown origin) assessed as increase in cAMP level incubated for 40 mins by spectrophotometry; assay type: functional
[12] = Drug concentration in Sprague-Dawley rat liver at […],iv measured after 30 mins by LC-MS/MS analysis; assay type: ADME, organism-based; conditions: in vivo, 0.5 h, dose 0.25 mg/kg
[13] = Toxicity in Sprague-Dawley rat assessed as effect on respiration at 0.3 mg/kg, sc; assay type: organism-based; conditions: in vivo
[14] = molecular target: Kappa-type opioid receptor (Homo sapiens, UniProt P41145); assay: Agonist activity at human kappa opioid receptor expressed in HEK293 assessed as increase in calcium mobilization incubated for 60 mins by FLIPR assay; assay type: functional, cell-based
Mu-type opioid receptor [15] = molecular target: T1, Mu-type opioid receptor; assay: Agonist activity at human mu opioid receptor expressed in HEK293 assessed as increase in calcium mobilization incubated for 60 mins by FLIPR assay; assay type: functional, cell-based
[16] = AUC(0 to infinity) in Sprague-Dawley rat at 2 mg/kg, iv by LC-MS/MS analysis; assay type: ADME, organism-based; design: route intravenous, time infinity, dose 2 mg/kg; conditions: in vivo
[17] = AUClast in Sprague-Dawley rat at 2 mg/kg, iv by LC-MS/MS analysis; assay type: ADME, organism-based; design: time 0 - last, route intravenous, dose 2 mg/kg; conditions: in vivo
Rattus norvegicus [18] = assay: Antinociceptive activity in Sprague-Dawley rat assessed as increase in paw withdrawal latency at 0.3 mg/kg, sc measured after 30 mins by Hot-plate test; assay type: functional, organism-based
[19] = molecular target: Delta-type opioid receptor (Homo sapiens, UniProt P41143); assay: Agonist activity at human delta opioid receptor expressed in HEK293 assessed as increase in calcium mobilization incubated for 60 mins by FLIPR assay; assay type: functional, cell-based
Cytochrome P450 2C19 = Cytochrome P450 2C19 (Homo sapiens, UniProt P33261); assay: Inhibition of CYP2C19 (unknown origin); assay type: ADME
[20] = Plasma protein binding in rat plasma assessed as unbound fraction; assay type: ADME, cell-free
[21] = Plasma protein binding in dog plasma assessed as unbound fraction; assay type: ADME, cell-free, Canis lupus familiaris
[22] = Drug concentration in Sprague-Dawley rat brain at […], iv measured after 5 mins by LC-MS/MS analysis; assay type: ADME, organism-based; conditions: dose 0.25 mg/kg, read-out: Drug uptake
[23] = Half life of compound; assay type: physicochemical
Rattus norvegicus [24] = assay: Antinociceptive activity in sc dosed Sprague-Dawley rat assessed as increase in thermal pain threshold measured after 30 mins by Hot-plate test; assay type: functional; conditions: 0.5 h
[25] = MRT in Sprague-Dawley rat at 2 mg/kg, iv by LC-MS/MS analysis; assay type: ADME, organism-based; conditions: in vivo
[26] = Toxicity in Sprague-Dawley rat model assessed as effect on blood oxygen levels at […], sc measured after 30 mins by blood gas analyzer; assay type: organism-based; conditions: in vivo, 0.5 h, dose 0.32 mg/kg
[27] = Metabolic stability in dog liver microsomes assessed as intrinsic clearance preincubated for 10 mins followed by NADPH addition and measured after 60 mins by LC-MS/MS analysis; assay type: ADME, Canis lupus familiaris, Microsome; conditions: time 70 min, read-out: CLH
[28] = Cmax in Sprague-Dawley rat at 2 mg/kg, iv by LC-MS/MS analysis; assay type: ADME, organism-based; design: route intravenous, dose 2 mg/kg; conditions: in vivo

T1 sequence (P35372 whole entry): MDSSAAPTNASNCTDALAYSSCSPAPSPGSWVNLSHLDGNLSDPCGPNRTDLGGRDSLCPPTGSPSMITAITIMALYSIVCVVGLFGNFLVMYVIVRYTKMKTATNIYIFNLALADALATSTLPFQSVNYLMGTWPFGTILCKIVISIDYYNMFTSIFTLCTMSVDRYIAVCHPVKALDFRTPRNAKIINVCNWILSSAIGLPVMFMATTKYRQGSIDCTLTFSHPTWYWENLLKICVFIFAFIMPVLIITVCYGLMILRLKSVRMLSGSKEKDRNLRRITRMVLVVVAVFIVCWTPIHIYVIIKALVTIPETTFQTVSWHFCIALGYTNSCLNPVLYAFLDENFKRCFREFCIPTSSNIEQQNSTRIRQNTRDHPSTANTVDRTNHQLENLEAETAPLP
Sequence of Kappa-type opioid receptor (P41145 whole entry): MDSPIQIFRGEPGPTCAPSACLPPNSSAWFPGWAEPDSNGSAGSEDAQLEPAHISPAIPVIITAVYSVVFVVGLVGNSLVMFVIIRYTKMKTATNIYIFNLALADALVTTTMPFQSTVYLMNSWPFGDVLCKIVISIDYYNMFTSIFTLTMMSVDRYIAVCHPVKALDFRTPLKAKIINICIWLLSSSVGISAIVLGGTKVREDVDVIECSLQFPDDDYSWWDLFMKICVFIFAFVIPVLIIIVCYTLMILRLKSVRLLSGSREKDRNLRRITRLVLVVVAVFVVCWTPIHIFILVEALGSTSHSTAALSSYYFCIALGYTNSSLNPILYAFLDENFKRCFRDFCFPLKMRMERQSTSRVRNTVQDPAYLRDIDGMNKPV
Sequence of Cytochrome P450 2C19 (P33261 whole entry): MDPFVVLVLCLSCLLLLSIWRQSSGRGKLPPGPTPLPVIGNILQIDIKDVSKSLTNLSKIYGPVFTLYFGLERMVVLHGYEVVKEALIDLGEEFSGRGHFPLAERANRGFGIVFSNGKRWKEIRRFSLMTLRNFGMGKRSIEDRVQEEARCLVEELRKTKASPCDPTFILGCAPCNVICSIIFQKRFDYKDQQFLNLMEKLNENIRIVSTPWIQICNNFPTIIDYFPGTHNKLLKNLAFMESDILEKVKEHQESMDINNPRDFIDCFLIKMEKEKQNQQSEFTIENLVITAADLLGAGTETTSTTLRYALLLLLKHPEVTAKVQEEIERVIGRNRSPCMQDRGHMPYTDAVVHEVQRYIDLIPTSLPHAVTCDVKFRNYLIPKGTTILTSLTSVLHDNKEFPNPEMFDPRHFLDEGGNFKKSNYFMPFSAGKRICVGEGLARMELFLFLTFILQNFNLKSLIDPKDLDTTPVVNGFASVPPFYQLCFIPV
Sequence of Delta-type opioid receptor (P41143 whole entry): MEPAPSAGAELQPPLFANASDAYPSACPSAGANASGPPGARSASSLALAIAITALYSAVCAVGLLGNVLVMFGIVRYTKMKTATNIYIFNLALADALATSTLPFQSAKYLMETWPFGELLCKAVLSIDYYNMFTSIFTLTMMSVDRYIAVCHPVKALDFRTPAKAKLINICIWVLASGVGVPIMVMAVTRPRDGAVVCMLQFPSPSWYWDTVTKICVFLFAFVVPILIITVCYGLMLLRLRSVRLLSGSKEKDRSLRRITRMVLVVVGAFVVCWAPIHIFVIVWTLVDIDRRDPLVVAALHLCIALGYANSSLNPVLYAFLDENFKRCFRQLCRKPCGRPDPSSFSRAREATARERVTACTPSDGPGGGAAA

Fc1ccc([C@]2(CCNCc3cccc(Cl)c3)CCO[C@]3(CCOC3)C2)nc1
Papp A→B [1]: 5.2 ×10⁻⁶ cm/s | Kp at […] [2]: 4.61 | Ki (Mu-type opioid receptor [3]): 0.514 nM | Emax (Mu-type opioid receptor [4]): 91.4% | Activity (Rattus norvegicus [5]): 50% | half-life [6]: 119 min | CLint scaled [7]: 176 mL/min/kg | Vd [8]: 10.8 L/kg | Emax (Mu-type opioid receptor [9]): 1.6% | fraction unbound [10]: 0.34 | EC50 (Mu-type opioid receptor [11]): 0.35 nM | Drug uptake [12]: 58.6% | Activity [13]: Non-Toxic | EC50 [14]: > 10000 nM | EC50 (Mu-type opioid receptor [15]): 5.09 nM | AUC [16]: 134.01 ng·h/mL | AUC(0-t) [17]: 132 ng·h/mL | Activity (Rattus norvegicus [18]): Active | EC50 [19]: > 10000 nM | IC50 (Cytochrome P450 2C19): > 33000 nM | fraction unbound [20]: 0.33 | fraction unbound [21]: 0.17 | concentration at 5 min [22]: 172 ng/g | half-life [23]: 7.16 min | ED50 (Rattus norvegicus [24]): 0.23 mg/kg | MRT [25]: 48.6 min | Activity [26]: 92.17% | CLint scaled [27]: 152 mL/min/kg | Cmax [28]: 252 ng/mL
